Assay results published in BindingDB's records for doi:10.7270/Q2KW5DFJ (Emory University, 2007).

Molecular target: T1, Ubiquitin carboxyl-terminal hydrolase BAP1 (Homo sapiens, UniProt Q92560)
T1 sequence (Q92560 whole entry): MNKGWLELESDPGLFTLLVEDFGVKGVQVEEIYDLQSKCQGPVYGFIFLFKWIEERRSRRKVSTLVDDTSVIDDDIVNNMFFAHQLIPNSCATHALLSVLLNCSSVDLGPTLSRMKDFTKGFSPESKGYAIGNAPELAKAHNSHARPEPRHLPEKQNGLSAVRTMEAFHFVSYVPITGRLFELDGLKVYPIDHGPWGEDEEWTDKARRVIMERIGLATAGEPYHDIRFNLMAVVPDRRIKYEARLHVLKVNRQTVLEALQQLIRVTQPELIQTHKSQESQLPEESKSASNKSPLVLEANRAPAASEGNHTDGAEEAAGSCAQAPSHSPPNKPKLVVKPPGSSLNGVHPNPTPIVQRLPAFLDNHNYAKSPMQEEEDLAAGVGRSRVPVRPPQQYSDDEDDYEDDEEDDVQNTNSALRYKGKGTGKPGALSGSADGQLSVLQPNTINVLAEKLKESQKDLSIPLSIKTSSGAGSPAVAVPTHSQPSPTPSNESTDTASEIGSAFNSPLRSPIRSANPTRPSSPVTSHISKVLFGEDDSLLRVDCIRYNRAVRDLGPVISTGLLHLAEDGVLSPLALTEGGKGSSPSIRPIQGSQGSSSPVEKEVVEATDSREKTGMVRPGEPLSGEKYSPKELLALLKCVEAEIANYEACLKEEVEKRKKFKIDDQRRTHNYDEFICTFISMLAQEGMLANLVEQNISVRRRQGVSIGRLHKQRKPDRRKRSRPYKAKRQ
Test: BAP1 deubiquitinase inhibitors, dose response, biochemical (AID 714)

| SMILES | IC50 [µM] |
| --- | --- |
| CCCOC(=O)C1=C(C)N=C2CCCC(=O)C2C1c1cccc(OC)c1OC (configuration not stated) [4-(2,3-dimethoxyphenyl)-2-methyl-5-oxo-4,6,7,8-tetrahydro-1H-quinoline-3-carboxylic acid propyl ester] | 33.9 |
| CC(=O)C1=C(C)N=C(SCC(=O)c2ccc(Cl)c(Cl)c2)C(C#N)C1c1ccco1 (configuration not stated) [5-acetyl-2-[2-(3,4-dichlorophenyl)-2-oxoethyl]sulfanyl-4-(furan-2-yl)-6-methyl-1,4-dihydropyridine-3-carbonitrile] | > 50 |
